Laboratory results: patent publication US12673947B2 (Cytosinlab Therapeutics Co., Ltd., priority 2020, dated 2026)
pIC50: −log10 of the molar value.

Target: T1, FLT3 (Homo sapiens, UniProt P36888)
T1 construct: purchased Carna 08-145
T1 sequence (P36888 27-993): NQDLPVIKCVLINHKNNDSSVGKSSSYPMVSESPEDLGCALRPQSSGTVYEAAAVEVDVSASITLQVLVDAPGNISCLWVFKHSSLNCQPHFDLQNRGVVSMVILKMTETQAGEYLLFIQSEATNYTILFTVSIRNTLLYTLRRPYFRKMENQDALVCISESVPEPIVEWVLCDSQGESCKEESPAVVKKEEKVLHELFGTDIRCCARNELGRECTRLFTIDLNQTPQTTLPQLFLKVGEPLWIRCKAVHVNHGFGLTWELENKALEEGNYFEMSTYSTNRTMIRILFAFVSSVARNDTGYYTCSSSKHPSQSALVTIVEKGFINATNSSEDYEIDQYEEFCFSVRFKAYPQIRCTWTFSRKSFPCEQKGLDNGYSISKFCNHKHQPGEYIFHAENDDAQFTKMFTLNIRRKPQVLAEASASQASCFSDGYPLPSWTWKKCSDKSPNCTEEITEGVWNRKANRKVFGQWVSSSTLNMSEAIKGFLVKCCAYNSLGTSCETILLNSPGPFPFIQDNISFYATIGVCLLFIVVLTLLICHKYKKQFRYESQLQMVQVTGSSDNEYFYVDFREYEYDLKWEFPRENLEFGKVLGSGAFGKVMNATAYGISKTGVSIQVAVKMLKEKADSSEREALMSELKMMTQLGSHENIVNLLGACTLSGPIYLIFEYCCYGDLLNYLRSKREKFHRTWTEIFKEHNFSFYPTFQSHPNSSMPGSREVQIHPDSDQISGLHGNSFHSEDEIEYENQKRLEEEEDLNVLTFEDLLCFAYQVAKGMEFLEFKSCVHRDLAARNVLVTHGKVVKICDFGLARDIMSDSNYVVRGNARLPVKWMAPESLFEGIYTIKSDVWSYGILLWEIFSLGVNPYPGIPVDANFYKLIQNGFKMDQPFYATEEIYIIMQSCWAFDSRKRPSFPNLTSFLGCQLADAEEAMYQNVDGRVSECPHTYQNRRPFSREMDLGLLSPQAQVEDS
Experiment: FLT3 kinase in vitro inhibitory activity experiment (Caliper mobility shift, conversion rate)
Assay type: biochemical
Details: IC50 class, read-out: Enzyme activity FLT3
Experimental: Biological Test Example 1: FLT3 Kinase In Vitro Inhibitory Activity Experiment
Centrifuge (manufacturer: Eppendorf, model: 5430), microplate reader (manufacturer: Perkin Elmer, model: Caliper EZ Reader II), Echo 550 (manufacturer: Labcyte, model: Echo 550)
1. Kinase Reaction Process
• (1) 1×Kinase buffer was prepared. • (2) Preparation of the serial compound dilutions: the initial stock (the concentration of the tested compound was 1 μM) was diluted by 3-fold into 10 concentrations, and was single-well detected. The compounds were series diluted to solutions of 10 different concentration (100-folds final concentration) in 384-well plates. 250 nl of solution was transferred to each well of 384-well plate by Echo550. 100% DMSO (250 nl) was added to negative control wells and positive control wells respectively. • (3) Kinase solution (2.5 times final concentration) was prepared with 1×Kinase buffer. • (4) 10 μL of kinase solution (2.5 times final concentration) was added to compound wells and positive control wells respectively: 1×Kinase buffer (10 μL) was added to the negative control wells. • (5) The solution was centrifuged at 1000 rpm for 30 seconds, shaked and mixed, and incubated at room temperature for 10 minutes. • (6) The mixed solution of ATP and Kinase substrate 2 (25/15 times final concentration) was prepared with 1×Kinase buffer. • (7) 15 μL of mixed solution ATP and Kinase substrate 2 (25/15 times final concentration) was added to initiated the reaction. • (8) 384 well plate was centrifuged at 1000 rpm for 30 seconds, shaked and mixed, then incubated at room temperature for 30 minutes. • (9) Stop solution (30 μL) was added to stop kinase reaction, and the solution was centrifuged at 1000 rpm for 30 seconds, shaked and mixed. • (10) The conversion rate was read with Caliper EZ Reader II. 2. Data Analysis Formula for Calculation
Wherein: Conversion %_sample is the reading of the sample conversion; Conversion %_min: negative control well.

Row | SMILES | pIC50
1 | COc1cc(-c2cnc(N)c3ncc(NC4CCOCC4)nc23)ccc1N1CCC(N2CCN(C)CC2)CC1 [Compound 25] | 7.00 to 8.00
2 | CCc1nc2c(N)ncc(-c3ccc(N4CCC(N5CCN(C)CC5)CC4)c(OC)c3)c2nc1NC [Compound 76] | 7.00 to 8.00
3 | CCc1nc2c(N)ncc(-c3cnn(C4CCNCC4)c3)c2nc1N[C@H]1CCOC1 [Compound 259, (S)-3-ethyl-8-(1-(piperidin-4-yl)-1H-pyrazol-4-yl)-N2-(tetrahydrofuran-3-yl)pyridino[3,4-b]pyrazin-2,5-diamine] | ≥ 8.00
4 | CCc1nc2c(N)ncc(-c3ccc(N4CCC(N5CCN(C)CC5)CC4)c(OC)c3)c2nc1N[C@H]1CCC[C@@H](O)C1 [Compound 255] | ≥ 8.00
5 | CCc1nc2c(N)ncc(-c3ccn(C)c3)c2nc1NC1CCOCC1 [Compound 56] | 7.00 to 8.00
6 | CCc1nc2c(N)ncc(-c3ccc(N4CCC(N5CCN(C)CC5)CC4)c(OC)c3)c2nc1N[C@H]1CCC[C@H](O)C1 [Compound 256] | ≥ 8.00
7 | CCc1nc2c(N)ncc(-c3cnn(C(C)C)c3)c2nc1N[C@H]1CCOC1 [Compound 230] | ≥ 8.00
8 | CCc1nc2c(N)ncc(-c3cnn(CC4CCNCC4)c3)c2nc1NC1CCOCC1 [Compound 154] | ≥ 8.00
9 | CCc1nc2c(N)ncc(-c3ccc(N4CCC(N5CCN(C)CC5)CC4)c(OC)c3)c2nc1N[C@H]1CC[C@@H](O)CC1 [Compound 82] | ≥ 8.00
10 | CCc1nc2c(N)ncc(-c3cnn(C4COC4)c3)c2nc1N[C@H]1CCOC1 [Compound 231] | ≥ 8.00

Continued, values first:

Row | pIC50 | SMILES
11 | ≥ 8.00 | CCc1nc2c(N)ncc(-c3cnn(C4CCNCC4)c3)c2nc1N[C@@H]1CCOC1 [Compound 258]
12 | < 6.30 | CCc1nc2c(N)nccc2nc1N[C@@H]1CC[C@H](O)C1 [Compound 263, (1S,3R)-3-((5-amino-3-ethylpyridino[3,4-b]pyrazine-2-yl)amino)cyclopentan-1-ol]
13 | ≥ 8.00 | CCc1nc2c(N)ncc(-c3cnn(C4CCN(C5CCN(C)CC5)CC4)c3)c2nc1N[C@@H]1CCOC1 [Compound 250]
14 | 7.00 to 8.00 | CCc1nc2c(Nc3cccnc3)ncc(-c3cnn(C4CCNCC4)c3)c2nc1N[C@@H]1CC[C@H](O)C1 [Compound 262]
15 | ≥ 8.00 | CCc1nc2c(N)ncc(-c3cnn(C4CCN(CCO)CC4)c3)c2nc1N[C@H]1CCOC1 [Compound 229]
16 | ≥ 8.00 | CCc1nc2c(N)ncc(-c3cnn(C4CCN(c5cc(F)cc(F)c5)CC4)c3)c2nc1N[C@@H]1CC[C@H](O)C1 [Compound 173]
17 | 7.00 to 8.00 | CCc1nc2c(N)ncc(-c3cnn(C)c3)c2nc1NC1CCOCC1 [Compound 57]
18 | 6.30 to 7.00 | CCc1nc2c(N)ncc(Br)c2nc1N[C@@H]1CC[C@H](O)C1 [Compound 151, (1S, 3R)-3-((5-amino-8-bromo-3-ethylpyridino[3,4-b]pyrazine-2-yl)amino)cyclopentan-1-ol]
19 | ≥ 8.00 | CCc1nc2c(N)ncc(-c3cnn(C4CCN(C)CC4)c3)c2nc1N(C)CC(C)(C)O [Compound 264]
20 | 7.00 to 8.00 | CCc1nc2c(N)ncc(-c3ccc4c(c3)OCCN4C)c2nc1NC1CCOCC1 [Compound 61]
21 | ≥ 8.00 | CCc1nc2c(N)ncc(-c3ccc(N4CCC(N5CCN(C)CC5)CC4)c(C(C)(C)O)c3)c2nc1NC1CCOCC1 [Compound 19, 2-(5-(5-amino-3-ethyl-2-((tetrahydro-2H-pyran-4-yl)amino)pyridino[3,4-b]pyrazine-8-yl)-2-(4-(4-methylpiperazine-1-yl)piperidine-1-yl)phenyl)propan-2-ol]
22 | 7.00 to 8.00 | CCc1nc2c(N)ncc(-c3ccc(N4CCC(N5CCN(C)CC5)CC4)c(S(C)(=O)=O)c3)c2nc1NC1CCOCC1 [Compound 18, 3-ethyl-8-(4-(4-(4-methylpiperazine-1-yl)piperidine-1-yl)-3-(methylsulfyl)phenyl)-N2-(tetrahydro-2H-pyran-4-yl) pyridino [3,4-b] pyrazine-2,5-diamine]
23 | ≥ 8.00 | CCc1nc2c(N)ncc(-c3cnn(CC4CCN(C)CC4)c3)c2nc1NC1CCOCC1 [Compound 137]
